Measured values published in patent US20120177797A1, “TASTE ENHANCING AGENT” (J-OIL MILLS, INC., priority 2009, published 2012).

Columns and labels:
Format in all cases: in vivo
[1] = Sensory evaluation, intensity of saltiness in aqueous NaCl solution; details: 10 ppm added to 0.8% NaCl; additive-free = 3.0; 1.0 much weaker to 5.0 much stronger
Procedure: (§1) All sensory evaluation of taste was performed by individuals wearing a nose clip. The evaluation was performed by groups of three individuals, and the scores were averaged.
(§2) To a 0.2% aqueous sodium glutamate (MSG) solution (=umami), a 0.8% aqueous salt (NaCl) solution (=saltiness) and a 2% aqueous sucrose solution (=sweetness) were added 10 ppm linear aliphatic aldehydes having 3-12 carbon atoms shown in Table 1, respectively. Sensory evaluation was performed in which intensity of taste sensed when each of the aqueous solutions is introduced into the mouth is defined as “Intensity of umami” for the aqueous MSG solution, “Intensity of saltiness” for the aqueous NaCl solution and “Intensity of sweetness” for the aqueous sucrose solution. The score of aldehyde-free taste intensity was set to 3.0, and taste intensity upon addition of aldehyde was evaluated as follows. The results are shown in Table 1. • 1.0: Much weaker • 2.0: Weaker • 3.0: Similar • 4.0: Stronger • 5.0: Much Stronger
(§3) To a 0.2% aqueous sodium glutamate (MSG) solution (=umami), a 0.8% aqueous salt (NaCl) solution (=saltiness), a 2% aqueous sucrose solution (=sweetness) were added 10 ppm linear aliphatic alcohols having 2-11 carbon atoms, respectively. Sensory evaluation was performed in which intensity of taste sensed when each of the aqueous solutions is introduced into the mouth is defined as “Intensity of umami” for the aqueous MSG solution, “Intensity of saltiness” for the aqueous NaCl solution and “Intensity of sweetness” for the aqueous sucrose solution. The score of alcohol-free taste intensity was set to 3.0, and taste intensity upon addition was evaluated as follows. The results are shown in Table 3. • 1.0: Much weaker • 2.0: Weaker • 3.0: Similar • 4.0: Stronger • 5.0: Much stronger
(§4) To a 0.2% aqueous sodium glutamate (MSG) solution (=umami), a 0.8% aqueous salt (NaCl) solution (=saltiness), a 2% aqueous sucrose solution (=sweetness) were added 1 ppm n-hexanal and 1ppm 1-octene-3-ol each, respectively. Sensory evaluation was performed in which the intensity of taste sensed when each of the aqueous solutions is introduced into the mouth is defined as “Intensity of umami” for the aqueous MSG solution, “Intensity of saltiness” for the aqueous NaCl solution and “Intensity of sweetness” for the aqueous sucrose solution. The score of additive-free taste intensity was set to 3.0, and taste intensity upon addition was evaluated as follows. The results are shown in Table 9. • 1.0: Much weaker • 2.0: Weaker • 3.0: Similar • 4.0: Stronger • 5.0: Much stronger

[2] = Sensory evaluation, intensity of sweetness in aqueous sucrose solution; details: 10 ppm added to 2% sucrose; additive-free = 3.0; 1.0 much weaker to 5.0 much stronger
Procedure: as §1, §2, §3, §4

[3] = Sensory evaluation, intensity of umami in aqueous MSG solution; details: 10 ppm added to 0.2% MSG; additive-free = 3.0; 1.0 much weaker to 5.0 much stronger; mean of three individuals, nose clip
Procedure: as §1, §2, §3, §4

[4] = Sensory evaluation whether salt usage can be reduced; details: nothing added, for comparison, 0.5% NaCl solution = 3.0
Procedure: as §1
Evaluation was conducted to find whether salt usage can be reduced by the taste enhancing effects. To a 0.5% aqueous NaCl solution was added 10 ppm n-hexanal or 10 ppm 1-octen-3-ol. Taste intensity was determined in the sensory evaluation where the taste intensity of the 0.5% NaCl solution was set to 3.0. For comparison, sensory evaluation was also performed for a 0.8% and 0.6% concentration of aqueous NaCl solution. The sensory evaluation was evaluated as follows. The results are shown in Table 5. • 1.0: Much weaker • 2.0: Weaker • 3.0: Similar • 4.0: Stronger • 5.0: Much stronger

[5] = Sensory evaluation, intensity of saltiness in diluted soy sauce; details: 10 ppm in soy sauce diluted to 2% in water; aldehyde-free = 3.0; scale 1.0-5.0
Procedure: as §1
(§5) Sensory evaluation was performed for “Intensity of Umani ” and “ Intensity of Saltiness “. The score of aldehyde-free taste intensity was set to 3.0, and taste intensity upon addition was evaluated as follows. The results are shown in Table 7. • 1.0: Much weaker • 2.0: Weaker • 3.0: Similar • 4.0: Stronger • 5.0: Much stronger

[6] = Sensory evaluation, intensity of umami in diluted soy sauce; details: 10 ppm in soy sauce diluted to 2% in water; aldehyde-free = 3.0; scale 1.0-5.0
Procedure: as §1, §5

[7] = Sensory evaluation, intensity of sweetness in whipped cream; details: 100 ppm in whipped cream; aldehyde-free = 3.0; scale 1.0-5.0
Procedure: as §1
Sensory evaluation was performed for “Intensity of sweetness”. The score of aldehyde-free taste intensity was set to 3.0, and taste intensity upon addition was evaluated as follows. The results are shown in Table 8. • 1.0: Much weaker • 2.0: Weaker • 3.0: Similar • 4.0: Stronger • 5.0: Much stronger

[8] = Sensory evaluation, intensity of sweetness in aqueous sucrose solution; details: 10 ppm added to 2% sucrose; additive-free = 3.0; 1.0 much weaker to 5.0 much stronger; remark: listed apart in the source
[9] = Sensory evaluation, intensity of saltiness in aqueous NaCl solution; details: 10 ppm added to 0.8% NaCl; additive-free = 3.0; 1.0 much weaker to 5.0 much stronger; remark: listed apart in the source
[10] = Sensory evaluation, intensity of umami in aqueous MSG solution; details: 10 ppm added to 0.2% MSG; additive-free = 3.0; 1.0 much weaker to 5.0 much stronger; mean of three individuals, nose clip; remark: listed apart in the source
[11] = Sensory evaluation whether sucrose usage can be reduced; details: nothing added, for comparison, 1.5% sucrose solution = 3.0
Procedure: as §1
Evaluation was conducted to find whether sucrose usage can be reduced by the taste enhancing effects. To a 1.5% aqueous sucrose solution was added 10 ppm n-hexanal or 10 ppm 1-octen-3-ol. Taste intensity was determined in the sensory evaluation where the taste intensity of the 1.5% sucrose solution was set to 3.0. For comparison, sensory evaluation was also performed for a 2.0% and 1.8% concentration of aqueous sucrose solution. The sensory evaluation was evaluated as follows. The results are shown in Table 6. • 1.0: Much weaker • 2.0: Weaker • 3.0: Similar • 4.0: Stronger • 5.0: Much stronger

Structure (SMILES)	Intensity of saltiness, Aqueous NaCl solution [1]	Intensity of sweetness, Aqueous sucrose solution [2]	Intensity of umami, Aqueous MSG solution [3]	also measured
C=CC(O)CCCCCCC (stereo not shown) [1-decene-3-ol]	3.2	3.5	3.2	–
C=CC(O)CCC (stereo not shown) [1-hexene-3-ol]	3.2	3.5	3.2	–
CCCCCC=CC=CC=O [2,4-decadienal]	3.5	3.5	3.5	–
C=CCCCC=CCO [2,7-octadienol]	3.2	3.5	3.2	–
CCCCO [Example 1-butanol, 1-butanol]	3.2	3.2	3.2	–
C=CC(C)O (stereo not shown) [Example 1-buten-3-ol, 1-buten-3-ol]	3.2	3.5	3.2	–
CCCCCCCCCCO [Example 1-decanol, 1-decanol]	3.2	3.2	3.2	–
CCCCCCCO [Example 1-heptanol, 1-heptanol]	3.2	3.2	3.2	–
CCCCCCO [Example 1-hexanol, 1-hexanol]	3.2	3.2	3.2	–
CCCCCCCCCO [Example 1-nonanol, 1-nonanol]	3.2	3.2	3.2	–
CCCCCCCCO [Example 1-octanol, 1-octanol]	3.2	3.2	3.2	–
CCCCCO [Example 1-pentanol, 1-pentanol]	3.2	3.2	3.2	–
CCCCCCCCCCCO [Example 1-undecanol, 1-undecanol, reference compound]	3.0	3.0	3.0	–
CCCC=CC=O [Example 2-hexenal, 2-hexenal]	3.8	3.8	3.8	–
[Cl-].[Na+] [NaCl, sodium chloride, reference compound]	–	–	–	Scores in sensory evaluation (taste intensity, saltiness) ([4]; 0.6% aqueous NaCl solution): 3.5; Scores in sensory evaluation (taste intensity, saltiness) ([4]; 0.8% aqueous NaCl solution): 4.0
CCO [ethanol, reference compound]	3.0	3.0	3.0	–
CCCC=O [n-butanal]	3.5	3.5	3.5	Intensity of saltiness [5]: 3.5; Intensity of umami [6]: 3.5; Intensity of sweetness [7]: 3.5
CCCCCCCCCC=O [n-decanal]	3.5	3.5	3.5	Intensity of saltiness [5]: 3.5; Intensity of umami [6]: 3.5; Intensity of sweetness [7]: 3.5
CCCCCCCCCCCC=O [n-dodecanal, reference compound]	3.0	3.0	3.0	–
CCCCCCC=O [n-heptanal]	4.5	4.0	4.5	Intensity of saltiness [5]: 4.0; Intensity of umami [6]: 4.0; Intensity of sweetness [7]: 4.0
CCCCCCCC=O [n-octanal]	3.8	3.5	3.8	Intensity of saltiness [5]: 3.5; Intensity of umami [6]: 3.5; Intensity of sweetness [7]: 3.5
CCCCC=O [n-pentanal]	4.5	4.0	4.5	Intensity of saltiness [5]: 4.2; Intensity of umami [6]: 4.2; Intensity of sweetness [7]: 4.2
CCC=O [n-propanal]	3.5	3.5	3.5	Intensity of saltiness [5]: 3.5; Intensity of umami [6]: 3.5; Intensity of sweetness [7]: 3.5
CCCCCCCCCCC=O [n-undecanal, reference compound]	3.0	3.0	3.0	–
CCCO [propanol, reference compound]	–	–	–	Intensity of sweetness, Aqueous sucrose solution [8]: 3.0; Intensity of saltiness, Aqueous NaCl solution [9]: 3.0; Intensity of umami, Aqueous MSG solution [10]: 3.0
OC[C@H]1O[C@@](CO)(O[C@H]2O[C@H](CO)[C@@H](O)[C@H](O)[C@H]2O)[C@@H](O)[C@@H]1O [sucrose, reference compound]	–	–	–	Scores in sensory evaluation (taste intensity, sweetness) ([11]; 1.8% aqueous sucrose solution): 3.5; Scores in sensory evaluation (taste intensity, sweetness) ([11]; 2.0% aqueous sucrose solution): 4.0
